Results reported in ChEMBL document CHEMBL3301361, “Experimental in vitro DMPK and physicochemical data on a set of publicly disclosed compounds”.

assay: physchem; details: octan-1-ol/water, pH 7.4

| SMILES | logD |
| --- | --- |
| CCN(C)C(=O)c1ccc(C(=C2CCN(Cc3ccc(F)cc3)CC2)c2ccccc2NC(C)=O)cc1 | 2.79 |
| NC(Cc1ccc(N(CCCl)CCCl)cc1)C(=O)O (stereo unspecified) [SARCOLYSIN] | 0.39 |
| CCOC(=O)Nc1cccc([C@@H](c2ccc(C(=O)N3CCC3)cc2)N2CCN(Cc3cccnc3)CC2)c1 | 3.02 |
| CCN(CC)C(=O)c1ccc(C(c2cccc3cccnc23)N2CCNCC2)cc1 (stereo unspecified) | 0.7 |
| COc1ccc(-n2cnc3cc(NS(=O)(=O)c4ccccc4)ccc32)cc1 | 3.7 |
| CN1CCC(C#N)(c2cccc3ccccc23)CC1 | 2.73 |
| O=C1C=CC(=O)c2c(O)ccc(O)c21 [NAPHTHAZALIN] | 1.91 |
| CCC1(c2ccccc2)C(=O)NC(=O)NC1=O [PHENOBARBITAL] | 0.05 |
| CC(C)[C@@H](CN1CC[C@@](C)(c2cccc(O)c2)[C@@H](C)C1)NC(=O)[C@H]1Cc2ccc(O)cc2CN1 [JDTIC] | 2.39 |
| CCC(COC(=O)c1cc(OC)c(OC)c(OC)c1)(c1ccccc1)N(C)C (stereo unspecified) [TRIMEBUTINE] | 3.77 |
| CNC1=Nc2ncccc2C(c2cc[nH]c2)=NC1c1cccs1 (stereo unspecified) | 1.73 |
| COC(=O)c1ccc2c(c1)N(CCN1CCC(NCc3ccc4c(n3)NC(=O)CO4)CC1)C(=O)CO2 | 0.83 |
| CNC1=Nc2ncccc2C(c2ccco2)=NC1c1cccs1 (stereo unspecified) | 1.85 |
| CCOC(=O)c1c(C)n(Cc2ccco2)c2ccc(O)cc12 | 3.5 |
| Nc1ccccc1[N+](=O)[O-] [2-NITROANILINE] | -0.96 |
| Nc1nc2ccc(Cl)cc2c2nc(-c3ccco3)nn12 [CGS-15943] | 3.98 |
| c1ccc(CCNCc2ccccc2)cc1 | 1.65 |
| COc1cc(O)c2c(c1)/C=C/C[C@H](O)[C@H](O)C(=O)/C=C\C[C@H](C)OC2=O | 1.64 |

same assay, conditions: octan-1-ol/water, pH 7.4, LogD7.4

| SMILES | logD |
| --- | --- |
| COc1cc(N2CCCN(C)CC2)c2[nH]c(C(=O)Nc3ccc(N4CCOCC4)cc3)cc(=O)c2c1 | 2.1 |
| Cc1ccc2c(n1)c(Sc1ccc(Cl)cc1)c(C)n2CC(=O)O | 0.35 |
| Nc1ncc(-c2ccc(F)cc2)[nH]1 | 1.39 |
| COc1ccc(CCN2CN=C(SCc3ccc(Cl)cc3)NC2)cc1OC | 2.41 |
| Cc1ccc(C(=O)C(C)CN2CCCCC2)cc1 (stereo unspecified) [TOLPERISONE] | 1.65 |
| CCOc1cc2nnc(C(N)=O)c(Nc3cccc(Cl)c3F)c2cc1N1CCN(C)CC1 | 1.99 |
| COc1ccc2cc(CCC(C)=O)ccc2c1 [NABUMETONE] | 3.06 |
| CN1CCCN(C(c2ccccc2)c2ccc(Cl)cc2)CC1 (stereo unspecified) [HOMOCHLORCYCLIZINE] | 2.36 |
| CN1CCN(C(=O)c2cc(-c3ccccc3)sc2NC(N)=O)CC1 | 2.17 |
| Nc1c2c(nc3c(-c4ncccn4)cccc13)CN(C1CCC1)C2=O | 1.85 |
| CNC(=O)c1ccc(CCC(COc2ccc(-c3cccc([N+](=O)[O-])c3)cc2)N2C(=O)CSC2=O)cc1 (stereo unspecified) | 3.5 |
| Oc1ccc(C(c2ccc(O)cc2)C(Cl)(Cl)Cl)cc1 | 3.86 |
| CC(C)COCC(CN(Cc1ccccc1)c1ccccc1)N1CCCC1 (stereo unspecified) [BEPRIDIL] | 3.66 |
| CCNCc1cncc(-c2ccc(F)cc2OC)n1 | 1.18 |
| c1cc2c(cc1-c1cnc3n1CCC3)OCCO2 | 2.33 |
| C=CCCCCCCCCC(=O)N[C@H]1CCC(=O)NC1=O | 2.64 |
| O=C(NCC12CC3CC(CC(C3)C1)C2)c1cc(C2CCNCC2)ccc1Cl | 1.58 |
| Fc1ccc(-n2cc(C3CCNCC3)c3cc(Cl)ccc32)cc1 | 2.4 |
| Nc1n[nH]cc1-c1cc(C(F)(F)F)ccc1Oc1cc(F)c(S(=O)(=O)Nc2cscn2)cc1Cl | 2.65 |
| Cc1ccn2c(-c3ccnc(N)n3)c(C)nc2c1 | 2.39 |
| CC1(c2ccc(Cl)cc2)CCN(C(=O)COCc2ccncc2)CC1 | 2.79 |
| CC[C@H](NC(=O)c1c([S+](C)[O-])c(-c2ccccc2)nc2c(F)cccc12)c1ccccc1 (stereo partly specified) | 2.84 |

| SMILES | logD |
| --- | --- |
| C1CCc2c(c3c(N4CCCC4)nc(N4CCCC4)nc3n2CCN2CCOCC2)C1 | 3.6 |
| NC(=O)c1ccccc1O [SALICYLAMIDE] | 1.09 |
| COC(=O)CCCC(=O)Nc1ccc2c(c1)-c1ccccc1C(=O)C2=O | 2.96 |
| CN(C)CCN(Cc1ccccc1)c1ccccn1 [TRIPELENNAMINE] | 1.28 |
| Oc1ccc(C2CNCCc3c2cc(O)c(O)c3Cl)cc1 (stereo unspecified) [FENOLDOPAM] | 0.87 |
| Cc1occc(=O)c1OCc1ccccc1 | 1.87 |
| CN1Cc2c(N)cccc2[C@@H](c2ccccc2)C1 | 2.11 |
| Cn1ncc(Cl)c1-c1cc(C(=O)N[C@H](CN)Cc2cccc(F)c2)sc1Cl [AFURESERTIB] | 2.99 |
| COc1ccc(-c2coc3cc(O)cc(O)c3c2=O)cc1 [BIOCHANIN] | 3.5 |
| O=C(Cc1ccc2c(n1)NCCC2)Nc1ccc(C[C@H](NC(=O)c2c(Cl)cccc2Cl)C(=O)O)cc1 | -0.63 |
| O=S(=O)(Nc1cccnc1)c1ccc2c(c1)OCCO2 | 1.34 |
| COc1cc2c(Nc3ccc(Cl)cc3F)ncnc2cc1OCC1CCNCC1 | 1.1 |
| O=C(Nc1ccc(Cl)nc1)c1ccc(F)c(Cl)c1 | 3.64 |
| CC(C)c1nc(CN(C)C(=O)N[C@H](C(=O)N[C@@H](Cc2ccccc2)C[C@H](O)[C@H](Cc2ccccc2)NC(=O)OCc2cncs2)C(C)C)cs1 [RITONAVIR] | 4.3 |
| Nc1nc2ccccc2n1C(=O)c1ccccc1 | 1.56 |
| C#CC(C)(C)NC(=O)c1sccc1Oc1ccc(F)cc1[N+](=O)[O-] | 3 |
| CN(C)c1cccc2c(S(=O)(=O)Nc3cnccn3)cccc12 | 0.9 |
| COC(=O)c1c(C)[nH]c(C)c1C(=O)c1ccccc1Cl | 2.7 |
| CNC(=O)C1(N2CCCCC2=O)CCN(CC[C@H](CN(C)C(=O)c2c(OC)c(C#N)cc3ccccc23)c2ccc(Cl)c(Cl)c2)CC1 | 2.78 |
| NC(=O)C1CCN(CC(=O)Nc2ccc3c(c2)OCO3)CC1 | 0.4 |
| CCCc1c(OCCCCSCC(=O)O)ccc(C(C)=O)c1O | 1.3 |
| COc1ccc(C(C)NC(=O)C2(N)CCN(c3ncnc4[nH]ccc34)CC2)cc1OC (stereo unspecified) | 1.8 |

| SMILES | logD |
| --- | --- |
| NC1(C(=O)NC(CO)c2ccc(Cl)cc2)CCN(c2ncnc3[nH]ccc23)CC1 (stereo unspecified) | 2.4 |
| C[Si](C)(C)C#Cc1cn(C[C@H]2CN(c3ccc(C4=CCS(=O)(=O)CC4)c(F)c3)C(=O)O2)nn1 | 1.26 |
| Cn1cc(C#N)cc1-c1c2c(=O)n(CC#CCn3cncn3)c(=O)n(CC3CC3)c2nn1Cc1ccnc2ccc(Cl)cc12 | 3.43 |
| O=C1C(=O)c2cc(-c3ccccc3F)ccc2-c2ccccc21 | 2.92 |
| O=c1c(-c2ccc([N+](=O)[O-])cc2)coc2cc(O)cc(O)c12 | 3.24 |
| COC1/C=C/OC2(C)Oc3c(C)c(O)c4c(c3C2=O)C(=O)C=C(NC(=O)/C(C)=C\C=C\C(C)C(O)C(C)C(O)C(C)C(OC(C)=O)C1C)C4=O (stereo unspecified) | 0.7 |
| Nc1nonc1C(=NO)Nc1ccc(F)c(Cl)c1 | 2.7 |
| NC(=O)c1ccc(=O)n(Cc2ccc(Cl)cc2Cl)c1 | 2.36 |
| c1ccc(-c2cc(NCCCCCCCCNc3cc(-c4ccccc4)nc4ccccc34)c3ccccc3n2)cc1 | 2.27 |
| NC(Cc1c[nH]c2ccccc12)C(=O)O (stereo not drawn) [DL-TRYPTOPHAN] | -1.17 |
| Nc1ccc(/N=N/c2ccccc2)c(N)n1 [PHENAZOPYRIDINE] | 3.22 |
| CC(C)[C@@H](CO)NS(=O)(=O)c1ccc(Cl)s1 | 2.3 |
| CC(C)n1c(=O)n(C)c(=O)c2c(C(=O)N3CCS(=O)(=O)C3)c(Cc3ccccc3C(F)(F)F)sc21 | 2.55 |
| COc1cc(F)ccc1-c1cncc(CNC2CCCCC2)c1 | 2.6 |
| N#C/C(=C(\N)Sc1ccc(N)cc1)c1ccccc1C(F)(F)F | 3.4 |
| C[C@@H]1CN(c2noc(C(F)F)n2)CCN1c1ncc(OCc2ccncc2C#N)cn1 | 2.85 |
| CN1CCN(c2nc(NCCNc3ccc([N+](=O)[O-])cc3)c3ccccc3n2)CC1 | 2.91 |
| Cc1ccc(Cl)c(Nc2cc(Nc3ccc(OCC(O)CN(C)C)cc3)ncn2)c1 (stereo unspecified) | 2.16 |
| COc1cc(-c2nnc(S)n2-c2cccc(C(F)(F)F)c2)cc(OC)c1OC | 2.27 |
| Cn1cnc2cc(OC(=O)c3ccccc3)cnc21 | 2.4 |
| CC(=O)Nc1cccc(Nc2ncnc(N3CCC(OCc4ccc(OC(F)(F)F)cc4)CC3)n2)c1C | 4.4 |
| Cn1c(N)nc(CCc2cccc(-c3cccnc3)c2)cc1=O | 2.5 |

| SMILES | logD |
| --- | --- |
| C=CCc1cc(NC(C)=O)ccc1OCCCNC(C)C | -0.01 |
| Cn1cncc1-c1c2c(=O)n(CC#CCO)c(=O)n(CC3CC3)c2nn1Cc1ccnc2ccc(Cl)cc12 | 2.55 |
| CN[C@H]1CCN(C(=O)c2ccc(Nc3nccc(-c4cnc(C)n4C(C)C)n3)cc2)C1 | 1.22 |
| Cc1ccc(NC(=O)c2cccc(N(C)C)c2)cc1NC(=O)c1ccc(O)cc1 | 2.65 |
| CC(C)C(NC(=O)Cn1c(-c2ccccc2)ccc(NC(=O)OCc2ccncc2)c1=O)C(=O)C(F)(F)F (stereo unspecified) | 2.41 |
| Cn1sc(NC(=O)c2cccc(Cl)c2)nc1=O | 0.87 |
| O=[N+]([O-])c1ccc2c(c1)N(c1cccc[n+]1[O-])CC(C(F)F)(C(F)F)O2 | 3.2 |
| CC(C)Cn1c(=O)n(C)c(=O)c2c(C(=O)N3C[C@H](O)CO3)c(Cc3c[nH]c4ncccc34)sc21 | 2.04 |
| Cc1ccc(S(=O)(=O)Nc2ccc(/C=C/C(=O)Nc3ccccc3N)cc2)cc1 | 2.82 |
| NC1(C(=O)NC(c2ccc(Cl)cc2)C2CC2)CCN(c2ncnc3[nH]ccc23)CC1 (stereo unspecified) | 3.4 |
| O=S(=O)(Nc1cccnc1)c1ccccc1 | 0.84 |
| O=C(Nc1ccc(C(F)(F)F)c(Cl)c1)N1CCN(C[C@@H]2CCCN(C3CC3)C2)CC1 | 4.06 |
| CSc1ncccc1C(=O)NCC1CCCCC1 | 2.93 |
| Cc1nc(C)c(-c2ccc3c(c2)CC[C@]32CC[C@@H](c3nnn[nH]3)CC2)nc1C(N)=O | 1.4 |
| COc1ccc2nc(N[C@H]3CCC[C@H](NCc4ccsc4)C3)cc(C)c2c1 | 2.41 |
| Cc1cc2n[nH]c(=O)n2c2cc(-c3cccc(CO)c3)ccc12 | 3.36 |
| O=C(Oc1ccccc1O)c1cccc2ccccc12 | 4.4 |
| Cc1nc(C)c(-c2ccc([C@H]3CC[C@H](CC(=O)O)CC3)c(F)c2)nc1C(N)=O | 1.3 |
| O=C1C(=O)c2cccc([N+](=O)[O-])c2-c2ccccc21 | 2.6 |
| Cc1c(Sc2ccc(Cl)cc2)c2c(Cl)nccc2n1CC(=O)O | 0.92 |
| Clc1ccc2[nH]ccc2c1 | 3.28 |
| C[C@@H](NC(=O)[C@H]1CCCCN1)c1ccc(Nc2ncc3cc(-c4ccncc4)ccc3n2)cc1 | 2.15 |
